The assay has as its target Transient receptor potential cation channel subfamily V member 1 (Homo sapiens, UniProt Q8NER1). Put plainly: Inhibition of calcium influx evoked by capsaicin in human TRPV1 expressing cells by fluorescence assay. It counts as functional.

The structures appear in SMILES notation.

Transient receptor potential cation channel subfamily V member 1, sequence (Q8NER1 whole entry): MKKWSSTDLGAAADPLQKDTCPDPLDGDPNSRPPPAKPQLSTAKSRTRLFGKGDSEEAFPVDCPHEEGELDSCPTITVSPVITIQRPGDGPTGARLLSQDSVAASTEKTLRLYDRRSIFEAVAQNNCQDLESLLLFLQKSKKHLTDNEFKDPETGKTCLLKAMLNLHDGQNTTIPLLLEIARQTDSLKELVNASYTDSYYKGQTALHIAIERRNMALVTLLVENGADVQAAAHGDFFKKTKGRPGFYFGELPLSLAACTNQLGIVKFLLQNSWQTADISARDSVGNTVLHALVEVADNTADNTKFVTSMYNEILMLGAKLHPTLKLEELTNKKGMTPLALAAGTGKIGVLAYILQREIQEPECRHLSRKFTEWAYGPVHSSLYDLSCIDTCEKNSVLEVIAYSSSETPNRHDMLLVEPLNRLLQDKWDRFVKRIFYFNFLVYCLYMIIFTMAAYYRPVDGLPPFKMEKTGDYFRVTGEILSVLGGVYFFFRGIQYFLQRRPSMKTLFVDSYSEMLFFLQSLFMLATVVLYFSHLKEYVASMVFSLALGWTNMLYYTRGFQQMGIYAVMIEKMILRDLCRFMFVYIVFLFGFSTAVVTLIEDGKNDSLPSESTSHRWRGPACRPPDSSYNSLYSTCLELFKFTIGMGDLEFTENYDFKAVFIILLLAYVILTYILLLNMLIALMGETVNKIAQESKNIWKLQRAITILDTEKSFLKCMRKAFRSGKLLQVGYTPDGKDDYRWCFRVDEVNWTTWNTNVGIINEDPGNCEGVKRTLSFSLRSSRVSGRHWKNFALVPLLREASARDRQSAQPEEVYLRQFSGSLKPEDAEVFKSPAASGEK

By IC50 is commonly meant the concentration that gives 50% inhibition. As for `CCOc1cc(-c2cc3c(=O)[nH]c(C)nc3cc2C(C)C)ccc1Cl`, the IC50 came out at 12 nM.

For the origin of these results see ChEMBL document CHEMBL1147725, “Identification and biological characterization of 6-aryl-7-isopropylquinazolinones as novel TRPV1 antagonists that are effective in models of chronic pain” (J Med Chem, 2006).
